# Measured values: ChEMBL document CHEMBL6114970, “Development of carbazole-based molecules for inhibition of mutant hSOD1 protein aggregation in Amyotrophic Lateral Sclerosis” (Bioorg Med Chem, 2025)
# Calls of active or inactive are those of the source. The calls are words filed in the database; no cut-off is given here.
# Experiments:
# Homo sapiens [1] = organism: Homo sapiens; test: Inhibition of TCEP-treated human SOD1 A4V mutant aggregation at 50 uM measured after 24 hrs by thioflavin-T fluorescence assay relative to control
# Homo sapiens [2] = organism: Homo sapiens; test: Inhibition of TCEP-treated human SOD1 G93A mutant aggregation at 50 uM measured after 24 hrs by thioflavin-T fluorescence assay relative to control
# Homo sapiens [3] = organism: Homo sapiens; test: Inhibition of TCEP-treated human SOD1 G85R mutant aggregation at 50 uM measured after 24 hrs by thioflavin-T fluorescence assay relative to control
# N2a [4] = test: Protection against MG132-induced SOD1 aggregation-associated apoptosis in mouse Neuro2a cells over expressing hSOD1 G85R mutant assessed as upregulation of Bcl-2 expression preincubated for 24 hrs followed by MG132 addition and measured after 24 hrs by Western blot analysis; format: functional, cell-based; conditions: time 48.0 hrs
# N2a [5] = test: Protection against MG132-induced SOD1 aggregation-associated oxidative stress in mouse Neuro2a cells over expressing hSOD1 G85R mutant assessed as reduction in ROS level at 10 uM preincubated for 24 hrs followed by MG132 addition and measured after 24 hrs by H2DCFDA dye based flow cytometry; format: functional, cell-based; conditions: time 48.0 hrs
# N2a [6] = test: Cytotoxicity against mouse Neuro2a cells over expressing hSOD1 G85R mutant assessed as reduction in cell viability up to 10 uM measured after 48 hrs by MTT assay; format: toxicity, cell-based
# Homo sapiens [7] = organism: Homo sapiens; test: Inhibition of TCEP-treated human SOD1 G93A mutant aggregation assessed as formation of few slender fibrils at 50 uM measured after 24 hrs by 1% uranyl acetate staining based transmission electron microscopy
# N2a [8] = test: Protection against MG132-induced SOD1 aggregation-associated cytotoxicity in mouse Neuro2a cells over expressing hSOD1 G85R mutant assessed as restoration of normal morphology by phase contrast microscopy; format: functional, cell-based
# [9] = (§1) Inhibition of TCEP-treated human SOD1 G93A mutant aggregation measured after 24 hrs by thioflavin-T fluorescence assay
# Homo sapiens [10] = organism: Homo sapiens; test: as §1
# Homo sapiens [11] = organism: Homo sapiens; test: Inhibition of TCEP-treated human SOD1 G85R mutant aggregation assessed as size of protein at 50 uM measured after 24 hrs at 37 deg C by dynamic light scattering analysis (reference value: 151.1 nm)
# [12] = (§2) Inhibition of TCEP-treated human SOD1 G85R mutant aggregation measured after 24 hrs by thioflavin-T fluorescence assay
# Homo sapiens [13] = organism: Homo sapiens; test: as §2
# Homo sapiens [14] = organism: Homo sapiens; test: Inhibition of TCEP-treated human SOD1 G93A mutant aggregation assessed as size of protein at 50 uM measured after 24 hrs at 37 deg C by dynamic light scattering analysis (reference value: 84.38 nm)
# N2a [15] = test: Protection against MG132-induced SOD1 aggregation-associated cytotoxicity in mouse Neuro2a cells over expressing hSOD1 G85R mutant assessed as increase in cell viability at 1 uM preincubated for 24 hrs followed by MG132 addition and measured after 24 hrs by MTT assay; format: functional, cell-based; conditions: time 48.0 hrs
# N2a [16] = test: Protection against MG132-induced SOD1 aggregation-associated cytotoxicity in mouse Neuro2a cells over expressing hSOD1 G85R mutant assessed as restoration of cell viability by phase contrast microscopy; format: functional, cell-based
# N2a [17] = test: (§3) Protection against MG132-induced SOD1 aggregation-associated apoptosis in mouse Neuro2a cells over expressing hSOD1 G85R mutant assessed as necrotic cells preincubated for 24 hrs followed by MG132 addition and measured after 24 hrs by Annexin V-APC/propidium iodide staining based flow cytometry (reference value: 2.23 %); format: functional; conditions: time 48 hrs
# N2a [18] = test: Protection against MG132-induced SOD1 aggregation-associated apoptosis in mouse Neuro2a cells over expressing hSOD1 G85R mutant assessed as upregulation of Xiap expression preincubated for 24 hrs followed by MG132 addition and measured after 24 hrs by Western blot analysis; format: functional, cell-based; conditions: time 48.0 hrs
# Homo sapiens [19] = organism: Homo sapiens; test: Inhibition of TCEP-treated human SOD1 A4V mutant aggregation assessed as formation of few slender fibrils at 50 uM measured after 24 hrs by 1% uranyl acetate staining based transmission electron microscopy
# N2a [20] = test: Cytotoxicity against mouse Neuro2a cells over expressing hSOD1 G85R mutant assessed as reduction in cell viability at 25 uM measured after 48 hrs by MTT assay; format: toxicity, cell-based
# [21] = (§4) Inhibition of TCEP-treated human SOD1 A4V mutant aggregation measured after 24 hrs by thioflavin-T fluorescence assay
# Homo sapiens [22] = organism: Homo sapiens; test: as §4
# N2a [23] = test: as §3, with “late apoptotic” for “necrotic”, “20.93 to 23.01” for “2.23”; format: functional; conditions: time 48 hrs
# N2a [24] = test: as §3, with “early apoptotic” for “necrotic”, “1.41” for “2.23”; format: functional; conditions: time 48 hrs
# N2a [25] = test: Protection against MG132-induced SOD1 aggregation-associated cytotoxicity in mouse Neuro2a cells over expressing hSOD1 G85R mutant assessed as cell viability at 5 to 10 uM preincubated for 24 hrs followed by MG132 addition and measured after 24 hrs by MTT assay (reference value: 45%); format: functional; conditions: dose 5-10 µM, time 48 hrs
# Homo sapiens [26] = organism: Homo sapiens; test: Inhibition of TCEP-treated human SOD1 A4V mutant aggregation assessed as size of protein at 50 uM measured after 24 hrs at 37 deg C by dynamic light scattering analysis (reference value: 154.4 nm)
# Homo sapiens [27] = organism: Homo sapiens; test: Inhibition of TCEP-treated human SOD1 G85R mutant aggregation assessed as formation of few slender fibrils at 50 uM measured after 24 hrs by 1% uranyl acetate staining based transmission electron microscopy
smiles,measurement,setting,value
CCn1c2ccccc2c2cc(NC(=O)NNC(=S)Nc3ccc([N+](=O)[O-])cc3)ccc21,inhibition,Homo sapiens [1],60%
same,inhibition,Homo sapiens [2],72.6%
same,inhibition,Homo sapiens [3],64.4%
Nc1nc2ccc(OC(F)(F)F)cc2s1,inhibition,Homo sapiens [1],9.88%
same,inhibition,Homo sapiens [2],inactive
same,inhibition,Homo sapiens [3],inactive
CCn1c2ccccc2c2cc(NC(=O)NNC(=O)Nc3ccc(Cl)cc3)ccc21,inhibition,Homo sapiens [1],59.3%
same,inhibition,Homo sapiens [2],33.9%
same,inhibition,Homo sapiens [3],63.3%
CCn1c2ccccc2c2cc(NC(=O)NNC(=S)Nc3ccc(Cl)cc3)ccc21,inhibition,Homo sapiens [1],61.1%
same,inhibition,Homo sapiens [2],76.4%
same,inhibition,Homo sapiens [3],58.3%
CCn1c2ccccc2c2cc(NC(=O)NNC(=S)Nc3ccc(F)cc3)ccc21,inhibition,Homo sapiens [1],76.2%
same,Activity,N2a [4],Active
same,Activity,N2a [5],Active; Showed Better Reduction Compared To Curcumin
same,Activity,N2a [6],Non-toxic
same,inhibition,Homo sapiens [7],Active; Displayed Better Reduction In Aggregate Formation Than Curcumin
same,inhibition,Homo sapiens [2],80.7%
same,Activity,N2a [8],Active
same,IC50,[9],29.1 µM
same,inhibition,Homo sapiens [10],Dose-dependent-effect
same,Activity,Homo sapiens [11],26.4 nm
same,IC50,[12],23.4 µM
same,inhibition,Homo sapiens [13],Dose-dependent-effect
same,Activity,Homo sapiens [14],21.7 nm
same,Activity,N2a [15],inactive
same,Activity,N2a [16],Active
same,Activity,N2a [17],2.13%
same,Activity,N2a [18],Active
same,inhibition,Homo sapiens [19],Active; Displayed Better Reduction In Aggregate Formation Than Curcumin
same,Activity,N2a [20],Toxic
same,IC50,[21],28.1 µM
same,inhibition,Homo sapiens [22],Dose-dependent-effect
same,Activity,N2a [23],5.52%
same,Activity,N2a [24],1.19%
same,Activity,N2a [25],60%
same,Activity,Homo sapiens [26],27.7 nm
same,inhibition,Homo sapiens [27],Active; Displayed Better Reduction In Aggregate Formation Than Curcumin
same,inhibition,Homo sapiens [3],76.8%
CCn1c2ccccc2c2cc(NC(=O)NNC(=O)Nc3ccc(OC)cc3)ccc21,inhibition,Homo sapiens [1],40.6%
same,inhibition,Homo sapiens [2],61.8%
same,inhibition,Homo sapiens [3],38.2%
CCn1c2ccccc2c2cc(NC(=O)NNC(=O)Nc3ccc(F)cc3)ccc21,inhibition,Homo sapiens [1],46.1%
same,inhibition,Homo sapiens [2],71.9%
same,inhibition,Homo sapiens [3],43.4%
CCn1c2ccccc2c2cc(NC(=O)NNC(=O)NCCc3ccccc3)ccc21,inhibition,Homo sapiens [1],62.8%
same,inhibition,Homo sapiens [2],44.5%
same,inhibition,Homo sapiens [3],70%
CCn1c2ccccc2c2cc(NC(=O)NNC(=O)Nc3ccc([N+](=O)[O-])cc3)ccc21,inhibition,Homo sapiens [1],55.3%
same,inhibition,Homo sapiens [2],48.2%
same,inhibition,Homo sapiens [3],43.1%
CCn1c2ccccc2c2cc(NC(=O)NNC(=S)Nc3ccccc3)ccc21,inhibition,Homo sapiens [1],71.3%
same,Activity,N2a [4],Active
same,Activity,N2a [5],Active; Significant Effect Observed
same,Activity,N2a [6],Non-toxic
same,inhibition,Homo sapiens [7],Active; Displayed Better Reduction In Aggregate Formation Than Curcumin
same,inhibition,Homo sapiens [2],88.3%
same,Activity,N2a [8],Active
same,IC50,[9],26 µM
same,inhibition,Homo sapiens [10],Dose-dependent-effect
same,Activity,Homo sapiens [11],36.3 nm
same,IC50,[12],31.3 µM
same,inhibition,Homo sapiens [13],Dose-dependent-effect
same,Activity,Homo sapiens [14],25.2 nm
same,Activity,N2a [15],inactive
same,Activity,N2a [16],Active
same,Activity,N2a [17],2.64%
same,Activity,N2a [18],Active
same,inhibition,Homo sapiens [19],Active; Displayed Better Reduction In Aggregate Formation Than Curcumin
same,Activity,N2a [20],Toxic
same,IC50,[21],32.4 µM
same,inhibition,Homo sapiens [22],Dose-dependent-effect
same,Activity,N2a [23],8.26%
same,Activity,N2a [24],1.04%
same,Activity,N2a [25],60%
same,Activity,Homo sapiens [26],44.6 nm
same,inhibition,Homo sapiens [27],Active; Displayed Better Reduction In Aggregate Formation Than Curcumin
same,inhibition,Homo sapiens [3],74.8%
CCn1c2ccccc2c2cc(NC(=O)NNC(=O)Nc3ccc(OC(F)(F)F)cc3)ccc21,inhibition,Homo sapiens [1],47.1%
same,inhibition,Homo sapiens [2],73.8%
same,inhibition,Homo sapiens [3],63.8%
CCn1c2ccccc2c2cc(NC(=O)NNC(=S)Nc3ccc(OC)cc3)ccc21,inhibition,Homo sapiens [1],58.8%
same,inhibition,Homo sapiens [2],72.5%
same,inhibition,Homo sapiens [3],70.6%
CCn1c2ccccc2c2cc(NC(=O)NNC(=S)Nc3ccc(OC(F)(F)F)cc3)ccc21,inhibition,Homo sapiens [1],69.7%
same,inhibition,Homo sapiens [2],72.3%
same,inhibition,Homo sapiens [3],63.2%
COc1cc(/C=C/C(=O)CC(=O)/C=C/c2ccc(O)c(OC)c2)ccc1O [CURCUMIN],inhibition,Homo sapiens [1],58.7%
same,Activity,N2a [4],Active
same,Activity,N2a [5],Active; Significant Effect Observed
same,Activity,N2a [6],Non-toxic
same,inhibition,Homo sapiens [7],Active
same,Activity,N2a [8],Active
same,IC50,[9],32.3 µM
same,inhibition,Homo sapiens [10],Dose-dependent-effect
same,Activity,Homo sapiens [11],40.2 nm
same,IC50,[12],64.1 µM
same,inhibition,Homo sapiens [13],Dose-dependent-effect
same,Activity,Homo sapiens [14],31.7 nm
same,Activity,N2a [15],inactive
same,Activity,N2a [16],Active
same,Activity,N2a [17],2.58%
same,Activity,N2a [18],Active
same,inhibition,Homo sapiens [19],Active
same,Activity,N2a [20],Toxic
same,IC50,[21],40.9 µM
same,inhibition,Homo sapiens [22],Dose-dependent-effect
same,Activity,N2a [23],8.19%
same,Activity,N2a [24],0.97%
same,Activity,N2a [25],60%
same,Activity,Homo sapiens [26],52.1 nm
same,inhibition,Homo sapiens [27],Active
same,inhibition,Homo sapiens [3],42.8%
CCn1c2ccccc2c2cc(NC(=O)NNC(=S)NCc3ccccc3)ccc21,inhibition,Homo sapiens [1],54.2%
same,inhibition,Homo sapiens [2],69.8%
same,inhibition,Homo sapiens [3],56.4%
CCn1c2ccccc2c2cc(NC(=O)NNC(=O)NCc3ccccc3)ccc21,inhibition,Homo sapiens [1],31.9%
same,inhibition,Homo sapiens [2],25.1%
same,inhibition,Homo sapiens [3],70.7%
CCn1c2ccccc2c2cc(NC(=O)NNC(=O)Nc3ccccc3)ccc21,inhibition,Homo sapiens [1],46.9%
same,inhibition,Homo sapiens [2],63.4%
same,inhibition,Homo sapiens [3],65.9%
CCn1c2ccccc2c2cc(NC(=O)NNC(=S)NCCc3ccccc3)ccc21,inhibition,Homo sapiens [1],68.5%
same,inhibition,Homo sapiens [2],65.4%
same,inhibition,Homo sapiens [3],66.1%
